Marks after values point to notes of the source that are not given here.
Assays:
wt HCT-116 cells = assay: Growth inhibition of siRNA-transfected wt HCT-116 cells, SYBR Green I DNA content; type: cell-based; conditions: standardized against control siRNA
Description: (§1) A549 cells (human lung cancer cell line; ATCC No. CCL-185), SK-MeI-5 cells (human melanoma cell line; ATCC No. HTB-70), MCF-7 cells (human adenocarcinoma cell line; ATCC No. HTB-22), HCT-116 cells (colorectal carcinoma; ATCC CCL-247) and HCT-116 p53 null cells (derived from ATCC No. CCL-247; Bunz et al., Science 282:1497-1501, 1998) were cultured in RPMI 1640 medium with 10% v/v heat-inactivated fetal calf serum (FCS). Cells were seeded at a density of 5×10^4 cells/cm^2 in multi-well tissue culture plates. Sequences of Stealth™ siRNA duplexes (Invitrogen) targeting human ribonucleotide reductase subunit 1 (SEQ ID NO: 22) and subunit 2 (SEQ ID NO; 38) are given in SEQ ID NO: 4830-4832 (DNA), and SEQ ID NO: 5136-5138 (RNA) for RRM1, and SEQ ID NO: 5306-5308 (DNA), and SEQ ID NO: 5303-5305 (RNA) for RRM2. siRNAs were transfected at different concentrations into cells using Lipofectamine™ RNAiMAX transfection reagent (Invitrogen). Non-specific siRNA (SEQ ID NO: 4804 and 4805 (DNA), and SEQ ID NO: 5301 and 5302 (RNA)) were used as controls. The cellular DNA content was measured using a SYBR Green I-based fluorometric assay at 24, 48, 72 and 96 hours after transfection (120 hours for the MCF-7 cells), as follows. At the indicated time points following reverse transfection, cells were harvested and frozen at −80° C. overnight. Cells were thawed and cell lysis buffer (phosphate-buffered saline (PBS) containing 1% Triton X-100, pH 7) and SYBR Green I (1:10^5 V/V; Invitrogen) was added to the wells and incubated overnight in the dark at 4° C.
(§2) The following day, cell lysates were mixed thoroughly, and DNA fluorescence was measured with a Wallac Victor^2 plate reader (Turku, Finland) set at an excitation frequency of 485 nm and measuring emission at 535 nm.
(§3) To determine the effect of the p53-status of cells on RRM1 and RRM2 knockdown, growth inhibition of wild type (wt) HCT-116 and p53 null HCT-116 cells by RRM1 and RRM2-targeted siRNA were determined. Cells were reverse transfected with 1.0 and 10 nM RRM1-3 (SEQ ID NO: 4832 (DNA), and SEQ ID NO: 5138 (RNA)), 1.0 and 10 nM RRM2-2 (SEQ ID NO: 5307 (DNA), and SEQ ID NO: 5304 (RNA)) or 10 nM control siRNA (SEQ ID NO: 4804 (DNA), and SEQ ID NO: 5301 (RNA)), and growth measured daily for up to 4 days post transfection.
(§4) siRNA-mediated RNAi was also determined on a panel of different cell lines. A549, SK-MeI-5, wt HCT-116, HCT-116−/−p53 and MCF-7 cells were transfected with 10 nM siRNAs targeting YBX-1 and growth inhibition determined as described above. The YBX1 siRNAs are given in SEQ ID NO: 4981 to 4985 (DNA) and SEQ ID NO: 5276-5280 (RNA). A non-specific siRNA (SEQ ID NO: 4804 (DNA) and SEQ ID NO: 5301 (RNA)) was used as control. Growth inhibition by the siRNAs, given in Table 14, was standardized against the inhibition obtained with the control siRNA.
HCT-116 and A549 cells were transfected with 0.1, 1.0 and 10 nM siRNA targeting TYMS and DHFR (SEQ ID NO: 4833 to 4838 (DNA), and SEQ ID NO: 5139-5144 (RNA)) using Lipofectamine™ RNAiMAX and incubated for 96 h, in either normal fetal calf serum or serum dialyzed to remove low molecular weight molecules (cut-off 10 kDa). Growth of cells was measured by measuring the total DNA content per well using the SYBR Green assay as described above, and values are given as the percentage of the averaged control values. […] Inhibition increased with increasing siRNA concentration, which was not observed with a non-specific control siRNA. […]

HCT-116 p53 null cells = assay: Growth inhibition of siRNA-transfected p53 null HCT-116 cells, SYBR Green I DNA content; type: cell-based; conditions: for growth inhibition, HCT-116 −/−p53 cells: standardized against control siRNA
Description: as §1, §2, §3, §4

[1] = system: target transcript mRNA in A549 cells; assay: Level of mRNA of target transcript in A549 cells by quantitative RT-PCR (Tables 12 and 13); type: cell-based, human; conditions: 24 h post-transfection; for mRNA knockdown of transporter gene target transcript, 10 nM: 10 nM siRNA
Summary of the method: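 A549 cells were transfected with siRNA at 0.1, 1.0 and 10 nM. RNA was extracted 24 h later, reverse-transcribed with random primers, and target mRNA quantified by SYBR Green qRT-PCR. Values were normalised to housekeeping genes HPRT and Lamin.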

| Substance | growth inhibition, wt HCT-116 cells (wt HCT-116 cells; 1 nM siRNA) | growth inhibition, HCT-116 −/−p53 cells (HCT-116 p53 null cells; 1 nM siRNA) | mRNA knockdown of transporter gene target transcript, 0.1 nM ([1]; 0.1 nM siRNA) | mRNA knockdown of transporter gene target transcript, 1 nM ([1]; 1 nM siRNA) | mRNA knockdown of transporter gene target transcript, 10 nM [1] | also measured |
| --- | --- | --- | --- | --- | --- | --- |
| SEQ ID NO: 4985: siRNA targeting YBX1 (chain 1 CAGCCTAGAGAGGACGGCAATGAAG; chain 2 CAGCCUAGAGAGGACGGCAAUGAAG; chemistry not given here; one strand in two spellings) | −* (No inhibition) | −* (No inhibition) | – | – | – | – |
| SEQ ID NO: 5307: Stealth siRNA targeting RRM2 (chain 1 AATTCATCCCAATGAGCTTCACAGG; chain 2 AAUUCAUCCCAAUGAGCUUCACAGG; Stealth siRNA, chemical pattern not given here; one strand in two spellings) | – | – | – | – | – | mRNA knockdown of energy and metabolism gene target transcript, 0.1 nM ([1]; 0.1 nM siRNA): + (50-70% mRNA knockdown); mRNA knockdown of energy and metabolism gene target transcript, 1 nM ([1]; 1 nM siRNA): ++ (70-90% mRNA knockdown); growth inhibition, p53 null HCT-116 (HCT-116 p53 null cells; 1.0 and 10 nM siRNA, up to 4 days, compared with p53 wt): more growth inhibitory |
| SEQ ID NO: 4984: siRNA targeting YBX1 (chain 1 CAAGGTAGACCAGTGAGGCAGAATA; chain 2 CAAGGUAGACCAGUGAGGCAGAAUA; chemistry not given here; one strand in two spellings) | +* (At least 20% inhibition) | +* (At least 20% inhibition) | – | – | – | – |
| SEQ ID NO: 4982: siRNA targeting YBX1 (chain 1 TTTGCTGGTAATTGCGTGGAGGACC; chain 2 UUUGCUGGUAAUUGCGUGGAGGACC; chemistry not given here; one strand in two spellings) | – | – | – | – | – | growth inhibition, wt HCT-116 cells (wt HCT-116 cells; 10 nM siRNA): +++ (At least 70% inhibition); growth inhibition, HCT-116 −/−p53 cells (HCT-116 p53 null cells; 10 nM siRNA): +++ (At least 70% inhibition) |
| SEQ ID NO: 4924: siRNA targeting SLC16A1 (MCT1) (chain 1 TTAGACTTATCTTTCCCTGCCTTGG; chain 2 UUAGACUUAUCUUUCCCUGCCUUGG; chemistry not given here; one strand in two spellings) | – | – | + (50-70% mRNA knockdown) | ++ (70-90% mRNA knockdown) | ++ (70-90% mRNA knockdown) | – |
| SEQ ID NO: 4932: siRNA targeting SLC29A1 (ENT1) (chain 1 TGATAAAGTAGCCGAAGGCACTTTC; chain 2 UGAUAAAGUAGCCGAAGGCACUUUC; chemistry not given here; one strand in two spellings) | – | – | ++ (70-90% mRNA knockdown) | ++ (70-90% mRNA knockdown) | ++ (70-90% mRNA knockdown) | – |
